Measurements as given in patent publication US20260337184A1, “NOVEL SUBSTITUTED 2-CARBONYL-BENZOTHIOPHENE-6-CARBOXYLIC ACID DERIVATIVES, PROCESSES FOR THEIR PREPARATION AND THERAPEUTIC USES THEREOF” (SANOFI, priority 2022, published 2026).
One block for each compound: values may come before it.

Target: T1, estrogen receptor (ERα) (Homo sapiens, UniProt P03372)
T1 construct: endogenous in cells; host or cells: MCF7 cells (ATCC)
T1 sequence (P03372 1-595): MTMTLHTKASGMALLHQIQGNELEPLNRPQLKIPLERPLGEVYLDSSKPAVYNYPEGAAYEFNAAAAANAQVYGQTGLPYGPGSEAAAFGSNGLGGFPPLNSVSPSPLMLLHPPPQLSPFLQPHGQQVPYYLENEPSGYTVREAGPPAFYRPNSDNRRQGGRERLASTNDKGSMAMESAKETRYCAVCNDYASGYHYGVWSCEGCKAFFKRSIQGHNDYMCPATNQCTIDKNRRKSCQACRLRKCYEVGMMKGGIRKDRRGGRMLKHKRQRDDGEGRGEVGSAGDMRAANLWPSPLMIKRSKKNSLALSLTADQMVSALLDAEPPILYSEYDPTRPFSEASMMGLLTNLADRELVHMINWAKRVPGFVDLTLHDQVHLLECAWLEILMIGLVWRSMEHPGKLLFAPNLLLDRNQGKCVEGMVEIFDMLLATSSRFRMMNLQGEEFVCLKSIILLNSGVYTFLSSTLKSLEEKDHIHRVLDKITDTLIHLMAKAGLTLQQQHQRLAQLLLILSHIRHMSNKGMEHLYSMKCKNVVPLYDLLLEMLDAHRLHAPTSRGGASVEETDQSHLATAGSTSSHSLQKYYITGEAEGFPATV
Assay: Estrogen receptor degradation activity (ERα in cell western assay, MCF7 breast cancer cells)
Type: cell-based
Conditions: for percent ER degradation at 0.3 µM: 4 hours, relative to fulvestrant (0.1 μM) and DMSO; for DC50: concentration which degrades 50% of the estrogen receptor, 4 hours post compound addition, read-out: Degradation IC50
Description: Test: Estrogen Receptor Degradation Activity
Said test involves measuring the in vitro degradation activity of the compounds of the Table 1a.
The measurements of the degradation activities were made using a breast cancer cell ERα in cell western assay as described hereunder.
MCF7 cells (ATCC) were seeded in 384 wells microplate (collagen coated) at a concentration of 10000 cells/30 μL per well in red phenol free MEM alpha medium (invitrogen) containing 5% charcoal dextran striped FBS. The following day, 9 points serial 1:5 dilution of each compound was added to the cells in 2.5 μL at final concentrations ranging from 0.3-0.0000018 μM (in table 2), or 0.1 μM for fulvestrant (using as positive control). At 4 hours post compound addition the cells were fixed by adding 25 μL of formalin (final concentration 5% formalin containing 0.1% triton) for 10 minutes at room temperature and then washed twice with PBS. Then, 50 μL of LI-COR blocking buffer containing 0.1% Triton was added to plate for 30 minutes at room temperature. LI-COR blocking buffer was removed and cells were incubated overnight at cold room with 50 μL anti-ER rabbit monoclonal antibody (Thermo scientific MA1-39540) diluted at 1:1000 in LI-COR blocking buffer containing 0.1% tween-20. Wells which were treated with blocking buffer but no antibody were used as background control. Wells were washed twice with PBS (0.1% tween-20) and incubated at 37° C. for 60 minutes in LI-COR (0.1% tween-20) containing goat anti-rabbit antibody Alexa 488 (1:1000) and Syto-64 a DNA dye (2 μM final concentration). Cells were then washed 3 times in PBS and scanned in ACUMEN explorer (TTP-Labtech). Integrated intensities in the green fluorescence and red fluorescence were measured to determine the levels of ERα and DNA respectively.
The degradation activity with respect to estrogen receptors in this test is given by the concentration which degrades 50% of the estrogen receptor (or IC50) in nM.
The % of ERα levels decrease were determined as follows: % inhibition=100*(1−(sample−fulvestrant: DMSO−fulvestrant)).

Compound: Cc1cc(F)cc(C)c1C(=O)c1sc2cc(C(=O)O)ccc2c1Oc1ccc(NC2CN(CCCF)C2)cc1 [Compound 1, 2-(4-fluoro-2,6-dimethylbenzoyl)-3-(4-((1-(3-fluoropropyl)azetidin-3-yl)amino)phenoxy)benzo[b]thiophene-6-carboxylic acid]
- percent ER degradation at 0.3 µM: 91%
- DC50: 5 nM

Compound: Cc1cc(F)cc(C)c1C(=O)c1sc2cc(C(=O)O)ccc2c1Oc1ccc(OC2CN(CCCF)C2)cc1 [Compound 2, 2-(4-fluoro-2,6-dimethylbenzoyl)-3-(4-((1-(3-fluoropropyl)azetidin-3-yl)oxy)phenoxy)benzo[b]thiophene-6-carboxylic acid]
- percent ER degradation at 0.3 µM: 92%
- DC50: 5 nM

Compound: Cc1cc(F)cc(C)c1C(=O)c1sc2cc(C(=O)O)ccc2c1Oc1ccc(CC2CN(CCCF)C2)cc1 [Compound 3, 2-(4-fluoro-2,6-dimethylbenzoyl)-3-(4-((1-(3-fluoropropyl)azetidin-3-yl)methyl)phenoxy)benzo[b]thiophene-6-carboxylic acid]
- percent ER degradation at 0.3 µM: 85%
- DC50: 3 nM

Compound: Cc1cc(F)cc(C)c1C(=O)c1sc2cc(C(=O)O)ccc2c1Oc1ccc(N[C@H]2CCN(CCCF)C2)cc1 [Compound 6, (S)-2-(4-fluoro-2,6-dimethylbenzoyl)-3-(4-((1-(3-fluoropropyl)pyrrolidin-3-yl)amino)phenoxy)benzo[b]thiophene-6-carboxylic acid]
- percent ER degradation at 0.3 µM: 84%
- DC50: 3 nM

Continued, values first:

- percent ER degradation at 0.3 µM: 98%
- DC50: 0.3 nM
Compound: Cc1cc(F)cc(C)c1C(=O)c1sc2cc(C(=O)O)ccc2c1Oc1ccc(C=C2CN(CCCF)C2)cc1 [Compound 4, 2-(4-fluoro-2,6-dimethylbenzoyl)-3-(4-((1-(3-fluoropropyl)azetidin-3-ylidene)methyl)phenoxy)benzo[b]thiophene-6-carboxylic acid]

- percent ER degradation at 0.3 µM: 91%
- DC50: 12 nM
Compound: Cc1cc(F)cc(C)c1C(=O)c1sc2cc(C(=O)O)ccc2c1Oc1ccc(O[C@H]2CCN(CCCF)C2)cc1 [Compound 5, (S)-2-(4-fluoro-2,6-dimethylbenzoyl)-3-(4-((1-(3-fluoropropyl)pyrrolidin-3-yl)oxy)phenoxy)benzo[b]thiophene-6-carboxylic acid]
